ChEMBL document CHEMBL3745637, “New hybrid molecules with anticonvulsant and antinociceptive activity derived from 3-methyl- or 3,3-dimethyl-1-[1-oxo-1-(4-phenylpiperazin-1-yl)propan-2-yl]pyrrolidine-2,5-diones” (Bioorg Med Chem, 2016)
Calls of active or inactive are those of the source. The calls are words filed in the database; no cut-off is given here.

Legend:
Mus musculus [1] = assay: Anticonvulsant activity in Swiss mouse assessed as protection against maximal electroshock-induced seizures at 100 mg/kg, ip pretreated for 1 hr; type: functional, organism-based
Mus musculus [2] = assay: Anticonvulsant activity in Swiss mouse assessed as protection against maximal electroshock-induced seizures at 100 mg/kg, ip pretreated for 2 hrs; type: functional, organism-based
Mus musculus [3] = assay: Anticonvulsant activity in Swiss mouse assessed as protection against maximal electroshock-induced seizures at 300 mg/kg, ip pretreated for 0.5 hrs; type: functional, organism-based
Mus musculus [4] = assay: Anticonvulsant activity in ip dosed Swiss mouse assessed as protection against maximal electroshock-induced seizures at 0.25 hrs; type: functional
Mus musculus [5] = assay: Anticonvulsant activity in Swiss mouse assessed as protection against maximal electroshock-induced seizures at 300 mg/kg, ip pretreated for 2 hrs; type: functional, organism-based
Mus musculus [6] = assay: Anticonvulsant activity in Swiss mouse assessed as protection against maximal electroshock-induced seizures at 300 mg/kg, ip pretreated for 0.25 hrs; type: functional, organism-based
Mus musculus [7] = assay: Anticonvulsant activity in Swiss mouse assessed as protection against maximal electroshock-induced seizures at 300 mg/kg, ip pretreated for 1 hr; type: functional, organism-based
Mus musculus [8] = assay: Anticonvulsant activity against Swiss mouse seizure model assessed as protection at 100 mg/kg, ip pretreated for 2 hrs by 6 Hz psychomotor seizure test; type: functional, organism-based
[9] = Protective index, ratio of TD50 for neurotoxicity in ip dosed Swiss mouse to ED50 for anticonvulsant activity in ip dosed Swiss mouse 6 Hz psychomotor seizure model at 0.25 hrs; type: toxicity, organism-based; conditions: in vivo, read-out: Ratio TD50/ED50
[10] = Protective index, ratio of TD50 for neurotoxicity in ip dosed Swiss mouse to ED50 for anticonvulsant activity in ip dosed MES Swiss mouse model at 0.25 hrs; type: toxicity, organism-based; conditions: in vivo, read-out: Ratio TD50/ED50
Mus musculus [11] = assay: Anticonvulsant activity in Swiss mouse assessed as reduction in clonic seizures at 100 mg/kg, ip pretreated for 2 hrs measured after 30 mins by subcutaneous pentylenetetrazole seizure test; type: functional, organism-based
Mus musculus [12] = assay: Anticonvulsant activity against ip dosed Swiss mouse seizure model assessed as protection at 0.25 hrs by 6 Hz psychomotor seizure test; type: functional
Mus musculus [13] = assay: Antinociceptive activity in ip dosed Swiss mouse assessed as reduction of formalin-induced licking at MES ED50 pretreated for 0.25 hrs measured during 15 to 20 mins; type: functional; parameters: scale not given: the % may be the effect or the level left
Mus musculus [14] = assay: Antinociceptive activity in ip dosed Swiss mouse assessed as reduction of formalin-induced licking at MES ED50 pretreated for 0.25 hrs measured during 1 to 5 mins; type: functional; parameters: scale not given: the % may be the effect or the level left
Mus musculus [15] = assay: Anticonvulsant activity in Swiss mouse assessed as protection against maximal electroshock-induced seizures at 100 mg/kg, ip pretreated for 0.25 hrs; type: functional, organism-based
Mus musculus [16] = assay: Anticonvulsant activity against Swiss mouse seizure model assessed as protection at 100 mg/kg, ip pretreated for 0.25 hrs by 6 Hz psychomotor seizure test; type: functional, organism-based
Mus musculus [17] = assay: Anticonvulsant activity in ip dosed Swiss mouse assessed as reduction in clonic seizures at 0.5 hrs by subcutaneous pentylenetetrazole seizure test; type: functional
[18] = Neurotoxicity in ip dosed Swiss mouse seizure model assessed as motor impairment pretreated for 0.25 hrs measured within 60 s by chimney test; type: toxicity, organism-based; conditions: in vivo
Mus musculus [19] = assay: Anticonvulsant activity in Swiss mouse assessed as protection against maximal electroshock-induced seizures at 100 mg/kg, ip pretreated for 0.5 hrs; type: functional, organism-based
Mus musculus [20] = assay: Anticonvulsant activity in ip dosed Swiss mouse assessed as reduction in clonic seizures at 0.25 hrs by subcutaneous pentylenetetrazole seizure test; type: functional
Rattus norvegicus [21] = species: Rattus norvegicus; assay: Displacement of [3H]Batrachotoxinin from sodium channel site 2 in rat cerebral cortex at 500 uM after 60 mins by scintillation counting method; type: tissue-based
Rattus norvegicus [22] = species: Rattus norvegicus; assay: Displacement of [3H]Batrachotoxinin from sodium channel site 2 in rat cerebral cortex at 100 uM after 60 mins by scintillation counting method; type: tissue-based
Mus musculus [23] = assay: Anticonvulsant activity in ip dosed Swiss mouse assessed as protection against maximal electroshock-induced seizures at 0.5 hrs; type: functional
[24] = Protective index, ratio of TD50 for neurotoxicity in ip dosed Swiss mouse to ED50 for anticonvulsant activity in ip dosed Swiss mouse 6 Hz psychomotor seizure model at 0.5 hrs; type: toxicity, organism-based; conditions: in vivo, read-out: Ratio TD50/ED50
Mus musculus [25] = assay: Anticonvulsant activity against ip dosed Swiss mouse seizure model assessed as protection at 0.5 hrs by 6 Hz psychomotor seizure test; type: functional
[26] = Protective index, ratio of TD50 for neurotoxicity in ip dosed Swiss mouse to ED50 for anticonvulsant activity in ip dosed MES Swiss mouse model at 0.5 hrs; type: toxicity, organism-based; conditions: in vivo, read-out: Ratio TD50/ED50
[27] = Neurotoxicity in ip dosed Swiss mouse seizure model assessed as motor impairment pretreated for 0.5 hrs measured within 60 s by chimney test; type: toxicity, organism-based; conditions: in vivo

SMILES	Activity (Mus musculus [1])	Activity (Mus musculus [2])	Activity (Mus musculus [3])	Activity (Mus musculus [5])	Activity (Mus musculus [6])	Activity (Mus musculus [7])	other results
CC(C(=O)N1CCN(c2ccccc2)CC1)N1C(=O)CC(C)(C)C1=O (centres undefined)	inactive	inactive	Active	inactive	Active	–	ED50 (Mus musculus [4]): > 130 mg/kg
CC1CC(=O)N(C(C)C(=O)N2CCN(c3ccc(Cl)c(Cl)c3)CC2)C1=O (centres undefined)	inactive	inactive	–	–	–	–	–
CC(C(=O)N1CCN(c2cccc(Cl)c2Cl)CC1)N1C(=O)CC(C)(C)C1=O (centres undefined)	–	–	inactive	inactive	inactive	inactive	–
CC(C(=O)N1CCN(c2ccccc2F)CC1)N1C(=O)CC(C)(C)C1=O (centres undefined)	–	–	inactive	inactive	inactive	inactive	–
CC(C(=O)N1CCN(c2cccc(Cl)c2)CC1)N1C(=O)CC(C)(C)C1=O (centres undefined)	–	inactive	Active	–	Active	–	Activity (Mus musculus [8]): inactive; selectivity ratio at 0.25 h [9]: 8.91; selectivity ratio at 0.25 h [10]: 1.47; Activity (Mus musculus [11]): inactive; ED50 (Mus musculus [12]): 19.8 mg/kg; ED50 (Mus musculus [4]): 120 mg/kg; Activity (Mus musculus [13]): 91%; Activity (Mus musculus [14]): 44%; Activity (Mus musculus [15]): Active; Activity (Mus musculus [16]): Active; ED50 (Mus musculus [17]): > 130 mg/kg; TD50 at 0.25 h [18]: 176 mg/kg
CC(C(=O)N1CCN(C)CC1)N1C(=O)CC(C)(C)C1=O (centres undefined)	–	–	inactive	inactive	inactive	inactive	–
CC1CC(=O)N(C(C)C(=O)N2CCN(c3ccccc3)CC2)C1=O (centres undefined)	inactive	inactive	–	–	–	–	Activity (Mus musculus [19]): inactive
CC1CC(=O)N(C(C)C(=O)N2CCN(c3ccc(F)cc3)CC2)C1=O (centres undefined)	–	–	–	inactive	–	inactive	–
CC1CC(=O)N(C(C)C(=O)N2CCN(c3ccccc3C(F)(F)F)CC2)C1=O (centres undefined)	–	inactive	–	inactive	Active	–	–
CCC(C(=O)N1CCN(c2cccc(C(F)(F)F)c2)CC1)N1C(=O)CC(C)(C)C1=O (centres undefined)	–	inactive	–	–	–	–	–
CCC(C(=O)N1CCN(c2cccc(Cl)c2)CC1)N1C(=O)CC(C)C1=O (centres undefined)	inactive	inactive	–	inactive	–	–	ED50 (Mus musculus [20]): > 130 mg/kg; Activity (Mus musculus [8]): inactive; selectivity ratio at 0.25 h [9]: 5.13; selectivity ratio at 0.25 h [10]: 1.91; ED50 (Mus musculus [12]): 43.5 mg/kg; ED50 (Mus musculus [4]): 117 mg/kg; Activity (Mus musculus [13]): 93%; Activity (Mus musculus [14]): inactive; Activity (Mus musculus [16]): Active; TD50 at 0.25 h [18]: 223 mg/kg
CC(C(=O)N1CCN(c2ccccc2C(F)(F)F)CC1)N1C(=O)CC(C)(C)C1=O (centres undefined)	inactive	inactive	Active	–	Active	–	ED50 (Mus musculus [4]): > 130 mg/kg
CC1CC(=O)N(C(C)C(=O)N2CCN(c3cccc(Cl)c3Cl)CC2)C1=O (centres undefined)	–	–	inactive	inactive	inactive	inactive	–
CC(C(=O)N1CCN(c2ccc(F)cc2)CC1)N1C(=O)CC(C)(C)C1=O (centres undefined)	–	–	–	inactive	inactive	–	–
CC(C(=O)N1CCN(c2ccc(Cl)c(Cl)c2)CC1)N1C(=O)CC(C)(C)C1=O (centres undefined)	–	inactive	–	–	–	–	–
COc1cccc(N2CCN(C(=O)C(C)N3C(=O)CC(C)C3=O)CC2)c1 (centres undefined)	inactive	inactive	–	–	–	–	Activity (Mus musculus [19]): inactive
CC(C(=O)N1CCN(c2cccc(F)c2)CC1)N1C(=O)CC(C)(C)C1=O (centres undefined)	–	inactive	–	–	–	–	–
Cc1cccc(N2CCN(C(=O)C(C)N3C(=O)CC(C)C3=O)CC2)c1 (centres undefined)	inactive	inactive	Active	inactive	Active	–	selectivity ratio at 0.25 h [10]: 1.73; ED50 (Mus musculus [4]): 122 mg/kg; TD50 at 0.25 h [18]: 210 mg/kg
CCC(C(=O)N1CCN(c2cccc(Cl)c2)CC1)N1C(=O)CC(C)(C)C1=O (centres undefined)	inactive	inactive	–	–	–	–	Activity (Mus musculus [19]): inactive; Activity (Mus musculus [15]): inactive
CC1CC(=O)N(C(C)C(=O)N2CCN(c3ccccc3F)CC2)C1=O (centres undefined)	inactive	inactive	–	inactive	–	inactive	Activity (Mus musculus [19]): inactive
CC1CC(=O)N(C(C)C(=O)N2CCN(C)CC2)C1=O (centres undefined)	–	–	inactive	inactive	inactive	inactive	–
NC(=O)N1c2ccccc2C=Cc2ccccc21	–	–	–	–	–	–	inhibition (Rattus norvegicus [21]): 33.6%; inhibition (Rattus norvegicus [22]): 17.4%
CC1CC(=O)N(C(C)C(=O)N2CCN(c3ccc(Cl)cc3)CC2)C1=O (centres undefined)	–	–	–	inactive	–	–	–
CC1CC(=O)N(C(C)C(=O)N2CCN(c3cccc(F)c3)CC2)C1=O (centres undefined)	inactive	inactive	–	inactive	–	inactive	Activity (Mus musculus [19]): inactive
COC[C@@H](NC(C)=O)C(=O)NCc1ccccc1 [LACOSAMIDE]	–	–	–	–	–	–	ED50 (Mus musculus [23]): 9.4 mg/kg; selectivity ratio at 0.5 h [24]: 5.26; ED50 (Mus musculus [25]): 6.4 mg/kg; selectivity ratio at 0.5 h [26]: 3.6; ED50 (Mus musculus [17]): > 500 mg/kg
Cc1cccc(N2CCN(C(=O)C(C)N3C(=O)CC(C)(C)C3=O)CC2)c1 (centres undefined)	inactive	inactive	–	inactive	–	–	Activity (Mus musculus [19]): inactive; Activity (Mus musculus [15]): inactive
CC1CC(=O)N(CC(=O)N2CCN(c3cccc(C(F)(F)F)c3)CC2)C1=O (centres undefined)	–	–	–	–	–	–	ED50 (Mus musculus [23]): 80.6 mg/kg; TD50 at 0.5 h [27]: 225 mg/kg; ED50 (Mus musculus [25]): 52.3 mg/kg; ED50 (Mus musculus [17]): > 200 mg/kg
CC1CC(=O)N(C(C)C(=O)N2CCN(c3ccccc3Cl)CC2)C1=O (centres undefined)	inactive	inactive	–	inactive	–	–	Activity (Mus musculus [19]): inactive; Activity (Mus musculus [15]): inactive
CC(C(=O)N1CCN(c2ccccc2Cl)CC1)N1C(=O)CC(C)(C)C1=O (centres undefined)	–	–	–	inactive	inactive	–	–
COc1cccc(N2CCN(C(=O)C(C)N3C(=O)CC(C)(C)C3=O)CC2)c1 (centres undefined)	inactive	inactive	–	inactive	–	inactive	Activity (Mus musculus [19]): inactive; Activity (Mus musculus [15]): inactive
